# From paper PMC10251479, “PROTAC-Induced Glycogen Synthase Kinase 3β Degradation as a Potential Therapeutic Strategy for Alzheimer’s Disease” (ACS Chemical Neuroscience, 2023)
# What was measured:
# GSK-3β protein [1] = target: T1, GSK-3β protein (Homo sapiens, UniProt P49841); experiment: GSK-3β degradation by Western blotting in SH-SY5Y cells; assay type: cell-based; set-up: endogenous in cells; host or cells: SH-SY5Y
# Description: Determination of GSK-3β degradation by Western Blotting
# At the end of incubation, cells were trypsinized and the cellular pellet was resuspended in complete lysis buffer containing leupeptin (2 µg/mL, Sigma-Aldrich), phenylmethylsulfonyl fluoride (PMSF, 100 µg/mL, Sigma-Aldrich) and a cocktail of protease/phosphatase inhibitors (100×). The protein concentration was determined using the Bradford method (Bio-Rad Laboratories Srl, Hercules, CA, USA). The protein lysates (50 µg per […]
# polyacrylamide gels, Bio-Rad Laboratories SrL) and electroblotted onto 0.45 µm nitrocellulose membranes. Membranes were incubated overnight at 4 °C with primary antibody recognizing GSK-3β (1:1000, Cell Signaling Technologies Inc, Danvers, MA, USA). Membranes were then washed with TRIS-buffered saline-T (TBS + 0.05% Tween20), and then incubated with horseradish peroxidase (POD) linked anti-rabbit secondary antibody (1:2000, GE Healthcare, Chicago, IL, USA).
# Immunoreactive bands were visualized by enhanced chemiluminescence (ECL, Bio-Rad Laboratories Srl). The same membranes were stripped and reprobed with anti β-actin (1:1000, Sigma-Aldrich). Data were normalized on the β-actin bands and analyzed by densitometry, using the Quantity One software (Bio-Rad Laboratories Srl).[9] […]
# SH-SY5Y cells [2] = experiment: Neuroprotective effects against Aβ25-35 peptide in SH-SY5Y cells (MTT); assay type: cell-based, human; conditions: 0.5 and 1 μM for 2 h, then 3 h with Aβ25–35 10 μM
# Description: Data are reported as mean ± SEM of three independent experiments. […]
# measured (570 nm, reference filter 690 nm) using a multilabel plate reader (VICTOR™ X3, PerkinElmer, Waltham, MA, USA).[11] Data are reported as mean ± SEM of three independent experiments. The neurotoxicity was expressed as a percentage of control cells and calculated by the formula: 100 – ((absorbance of treated neurons/absorbance of untreated neurons) × 100). […]
# analysis was performed using one-way ANOVA with the Dunnett post hoc test. Differences were considered significant at p < 0.05. Analyses were performed using GraphPad PRISM software (version 5.0; GraphPad Software, La Jolla, CA, USA) on a Windows platform.
# 11. PAMPA BBB permeation studies.
# Prediction of the brain penetration was evaluated using a parallel artificial membrane permeability assay (PAMPA).[12] Ten commercial drugs, PBS at pH 7.4, EtOH, and dodecane were purchased from Sigma- Aldrich, Acros organics, Merck, and Fluka. The porcine polar brain lipid (PBL) was from Avanti Polar Lipids. The donor plate was a 96-well filtrate plate (Multiscreen® IP Sterile Plate PDVF […]
# both from Millipore. Filter PDVF membrane units (diameter 30 mm, pore size 0.45 µm) from Symta were used to filter the samples. A 96-well plate UV reader (Biteck Instruments, Synergy H4 Hibrid Reader) was used for the UV measurements.
# 12 mg of promazine) were dissolved in 1 mL of EtOH. […]
# GSK-3β protein [3] = target: T1, GSK-3β protein; experiment: GSK-3β inhibition in vitro assay (Kinase-Glo luminescent); assay type: biochemical; set-up: purchased Millipore (Millipore Iberica S.A.U.); conditions: ATP 1 μM, GSM substrate 25 μM, 30 min at 37 °C; mean of at least two determinations in duplicate; read-out: IC50 ± SEM, GSK-3β activity
# Excerpt: N-(2-(2-(2-((2-(2,6-dioxopiperidin-3-yl)-1,3-dioxoisoindolin-4-yl)amino)ethoxy)ethoxy)ethyl)- 4-((2-(naphthalen-1-yl)-3,5-dioxo-1,2,4-thiadiazolidin-4-yl)methyl)benzamide (4). Synthesized […]
# GSK-3β inhibition in vitro assay. Human recombinant GSK-3β, prephosphorylated polypeptide substrate and white 96-well plates were purchased from Millipore (Millipore Iberica S.A.U.). Kinase-Glo Luminescent Kinase Assay was obtained from Promega (Promega Biotech Iberica, SL).
# Adenosinetriphosphate (ATP) and all other reagents were from Sigma-Aldrich. Assay buffer contained 50 mM 4-(2-hydroxyethyl)-1- piperazineethanesulfonic acid (HEPES) (pH 7.5), 1 mM ethylenediaminetetraacetic acid (EDTA), 1 mM ethylene glycol tetraacetic acid (EGTA), and 15 mM magnesium acetate. The in solution experiments for GSK-3β inhibition analysis were performed by following the method developed by Baki et al.[1] In a typical assay, 10 μL of test compound (dissolved […]
# in DMSO at 1 mM concentration and diluted in advance in assay buffer to the desired concentration) and 10 μL (20 ng) of enzyme were added to each well in presence of 20 μL of assay buffer containing […]
# After a 30 min incubation time at 37 °C, the enzymatic reaction was stopped by adding 40 μL of Kinase-Glo reagent. Glow-type luminescence was recorded after 10 min using a Victorx3 (PerkinElmer Waltham, MA, USA) plate […]
# inhibitory activities were calculated based on maximal kinase (average positive) and luciferase activities (average negative) measured in the absence of inhibitor and in the presence of reference […]
# μM), respectively. The linear regression parameters were determined and the IC 50 extrapolated by GraphPad software (version 5.0; GraphPad Software, La Jolla, CA, USA).
# SH-SY5Y cells [4] = experiment: Cytotoxicity in SH-SY5Y cells (MTT); assay type: cell-based, human
# Description: Human neuronal SH-SY5Y cells (Sigma-Aldrich, St. Louis, MO, USA) were routinely grown in Dulbecco’s modified Eagle’s Medium supplemented with 10% fetal bovine serum, 2 mM l-glutamine, 50 U/mL penicillin, and 50 μg/mL streptomycin at 37 °C in a humidified incubator with […]
# Determination of cytotoxicity
# SH-SY5Y cells were seeded in a 96-well plate at 2 × 10^4 cells/well, incubated for 24 h and then […]
# for 24 h at 37°C in 5% CO2. The cell viability, in terms of mitochondrial metabolic function, was evaluated by the reduction of 3-(4,5-dimethyl-2-thiazolyl)-2,5-diphenyl-2H-tetrazolium bromide […]
# (MTT) to its insoluble formazan. Briefly, the treatment was replaced with MTT in HBSS [0.5 mg/mL] for 2 h at 37°C in 5% CO2. After washing with HBSS, formazan crystals were dissolved in isopropanol. The amount of formazan was measured (570 nm, reference filter 690 nm) using a multilabel plate reader (VICTOR™ X3, PerkinElmer, Waltham, MA, USA). Data are expressed as mean of three independent experiments. […]
# T1 sequence (P49841 whole entry): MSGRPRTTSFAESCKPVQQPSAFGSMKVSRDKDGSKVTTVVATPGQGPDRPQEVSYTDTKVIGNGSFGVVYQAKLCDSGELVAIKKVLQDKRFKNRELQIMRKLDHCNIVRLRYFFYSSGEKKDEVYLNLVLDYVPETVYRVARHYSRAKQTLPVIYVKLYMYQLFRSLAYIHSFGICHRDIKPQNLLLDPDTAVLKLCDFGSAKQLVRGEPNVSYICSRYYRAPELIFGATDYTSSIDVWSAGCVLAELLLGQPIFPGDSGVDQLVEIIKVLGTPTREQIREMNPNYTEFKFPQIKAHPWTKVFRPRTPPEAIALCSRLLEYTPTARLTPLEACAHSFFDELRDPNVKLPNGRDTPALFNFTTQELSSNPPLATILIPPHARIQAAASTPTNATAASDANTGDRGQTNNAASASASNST
structure (smiles),measurement,setting,value
O=C(Cn1cc(C2=C(c3ccc(Cl)cc3Cl)C(=O)NC2=O)c2ccccc21)NCCCOCCCCOCCCNc1cccc2c1C(=O)N(C1CCC(=O)NC1=O)C2=O (stereo not drawn) [Compound 1],total GSK-3β protein level,"GSK-3β protein [1]; 10 μM, 48 h, Western blotting",significantly decreased the total level of GSK-3β protein
same,DC50,"GSK-3β protein [1]; 48 h, 0.5, 1, 5 and 10 μM, read-out: half-maximal degradation (DC50)",6.22 µM
same,"GSK-3β protein level, dose dependence","GSK-3β protein [1]; 48 h at 0.5, 1, 5 and 10 μM",significantly decreased GSK-3β protein level at all tested concentrations in a dose-dependent manner
same,total GSK-3β protein level in the presence of lactacystin,"GSK-3β protein [1]; compound 10 μM, 24 h, lactacystin 5 μM",had no effect on the total GSK-3β protein level
same,concentration from which GSK-3β is degraded,GSK-3β protein [1]; dose-dependent,≥ 0.5 µM
same,neurotoxicity induced by Aβ25–35 peptide,SH-SY5Y cells [2],markedly reduced the neurotoxicity induced by Aβ25–35 peptide
same,IC50,GSK-3β protein [3],0.833 ± 0.062 µM
same,concentration at which cytotoxicity was shown,"SH-SY5Y cells [4]; MTT, 24 h treatment, 1.25–40 μM",higher than 20 μM
same,nontoxic up to (neuronal cells),SH-SY5Y cells [4]; neuronal cells,up to 20 μM
